The record followed here is ChEMBL document CHEMBL5257089, “Gamabufotalin Induces Apoptosis and Cytoprotective Autophagy through the mTOR Signaling Pathway in Hepatocellular Carcinoma” (J Nat Prod, 2023).

Structures are written as SMILES. Active and inactive are the calls of the source. The rule behind the calls is not given here.

Data set [1] deals with Huh-7. The data set is described as follows: Induction of apoptosis in human Huh-7 cells assessed as late apoptotic cells at 10 nM incubated for 48 hrs in presence of gamabufotalin by Annexin V-FITC/PI staining based flow cytometry method (reference value: 4.7%). The format is functional. On the technique in general: In flow cytometry, cells or beads pass a laser one at a time.

Data set [2] concerns Hep 3B2. The data set is described as follows: Induction of apoptosis in human Hep3B cells assessed as increase in bax level at 10 nM incubated for 48 hrs in presence of gamabufotalin by immunoblot analysis. The data set is classed as functional, cell-based. (In general: Immunoblotting shows a protein as a band on a membrane.)
Data set [3] has as its system Huh-7. Nature of the data set: Induction of apoptosis in human Huh-7 cells assessed as necrotic cells at 10 nM incubated for 48 hrs by Annexin V-FITC/PI staining based flow cytometry method (reference value: 1.0%). The data set is classed as functional.
The subject of data set [4] is Huh-7. Nature of the data set: Induction of autophagic flux in human Huh-7 cells assessed as rescue of LC3-I accumulation at 10 uM incubated for 48 hrs in presence of gamabufotalin by Western blot analysis. The data set is classed as functional, cell-based.
For data set [5], the system named is Hep 3B2. Nature of the data set: Induction of apoptosis in human Hep3B cells assessed as increase in caspase-3 level at 10 nM incubated for 48 hrs in presence of gamabufotalin by immunoblot analysis. The format is functional, cell-based.
The subject of data set [6] is Hep 3B2. Nature of the data set: Induction of autophagic flux in human Hep3B cells assessed as rescue of LC3-II accumulation at 10 uM incubated for 48 hrs in presence of gamabufotalin by Western blot analysis. The format is functional, cell-based.
Data set [7] has as its system Hep 3B2. The data set is described as follows: Induction of apoptosis in human Hep3B cells assessed as increase in PARP expression at upto 25 nM incubated for 48 hrs by Western blot analysis. The format is functional, cell-based.
Data set [8] deals with Huh-7. Nature of the data set: Induction of autophagic flux in human Huh-7 cells assessed as increase in high electron density vesicles at 25 nM incubated for 48 hrs by transmission electron microscopic analysis. The data set is classed as functional, cell-based.
In data set [9] the test system is Huh-7. The data set is described as follows: Induction of apoptosis in human Huh-7 cells assessed as increase in cleaved PARP expression at upto 25 nM incubated for 48 hrs by Western blot analysis. The format is functional, cell-based.
Data set [10] deals with Hep 3B2. Nature of the data set: Induction of apoptosis in human Hep3B cells assessed as early apoptotic cells at 25 nM incubated for 48 hrs by Annexin V-FITC/PI staining based flow cytometry method (reference value: 1.3%). The data set is classed as functional.
The subject of data set [11] is Huh-7. Nature of the data set: Induction of apoptosis in human Huh-7 cells assessed as late apoptotic cells at 20 nM incubated for 48 hrs by Annexin V-FITC/PI staining based flow cytometry method (reference value: 2.2%). The data set is classed as functional.
For data set [12], the system named is Hep 3B2. The data set is described as follows: Induction of apoptosis in human Hep3B cells assessed as late apoptotic cells at 20 nM incubated for 48 hrs by Annexin V-FITC/PI staining based flow cytometry method (reference value: 2.6%). The format is functional.
Data set [13] deals with Huh-7. Nature of the data set: Induction of apoptosis in human Huh-7 cells assessed as increase in PARP level at 25 nM incubated for 48 hrs in presence of chloroquine by immunoblot analysis. The data set is classed as functional, cell-based.
Data set [14] relates to Huh-7. The data set is described as follows: Induction of apoptosis in human Huh-7 cells assessed as necrotic cells at 25 nM incubated for 48 hrs by Annexin V-FITC/PI staining based flow cytometry method (reference value: 95.4%). The data set is classed as functional.
Data set [15] concerns Huh-7. Nature of the data set: Induction of morphological changes in human Huh-7 cells assessed as round cell morphology at upto 25 nM incubated for 48 hrs by bright field imaging analysis. The format is functional, cell-based.
Data set [16] relates to Hep 3B2. Nature of the data set: Induction of apoptosis in human Hep3B cells assessed as necrotic cells at 25 nM incubated for 48 hrs by Annexin V-FITC/PI staining based flow cytometry method (reference value: 0.7%). The data set is classed as functional.
The nature of data set [17]: Toxicity in mouse assessed as effect on serum CERA level at 5 mg/kg,ip administered every second day for 3 weeks by H and E staining based microscopic method. The format is organism-based. The following applies: in vivo, 504 h.
Data set [18] has as its system Hep 3B2. Nature of the data set: Induction of autophagy in human Hep3B cells assessed as rescue of mTOR phosphorylation level at upto 25 nM incubated for 48 hrs in presence of chloroquine by immunoblot method. The format is functional, cell-based.
For data set [19], the system named is Huh-7. The data set is described as follows: Induction of apoptosis in human Huh-7 cells assessed as late apoptotic cells at 25 nM incubated for 48 hrs by Annexin V-FITC/PI staining based flow cytometry method (reference value: 2.2%). The format is functional.
The test system of data set [20] is Hep 3B2. The data set is described as follows: Induction of apoptosis in human Hep3B cells assessed as increase in caspase-3 level at 25 nM incubated for 48 hrs in presence of chloroquine by immunoblot analysis. The format is functional, cell-based.
Data set [21] concerns Hep 3B2. Nature of the data set: Induction of autophagy in human Hep3B cells assessed as rescue of ULK1 phosphorylation level at upto 25 nM incubated for 48 hrs in presence of chloroquine by immunoblot method. The data set is classed as functional, cell-based.
The subject of data set [22] is Huh-7. Nature of the data set: Induction of apoptosis in human Huh-7 cells assessed as necrotic cells at 15 nM incubated for 48 hrs by Annexin V-FITC/PI staining based flow cytometry method (reference value: 95.4%). The format is functional.
Data set [23] deals with Hep 3B2. The data set is described as follows: Induction of autophagic flux in human Hep3B cells assessed as rescue of LC3-II accumulation at 25 uM incubated for 48 hrs in presence of chloroquine by Western blot analysis. The data set is classed as functional, cell-based.
The test system of data set [24] is Huh-7. The data set is described as follows: Induction of apoptosis in human Huh-7 cells assessed as necrotic cells at 20 nM incubated for 48 hrs by Annexin V-FITC/PI staining based flow cytometry method (reference value: 0.7%). The data set is classed as functional.
Data set [25] concerns Hep 3B2. Nature of the data set: Induction of apoptosis in human Hep3B cells assessed as late apoptotic cells at 25 nM incubated for 48 hrs by Annexin V-FITC/PI staining based flow cytometry method (reference value: 2.2%). The format is functional.
Data set [26] relates to Hep 3B2. The data set is described as follows: Induction of apoptosis in human Hep3B cells assessed as early apoptotic cells at 25 nM measured after 48 hrs by annexin V-FITC/Propidium iodide staining based flow cytometric analysis (reference value: 1.6%). The data set is classed as functional.
For data set [27], the system named is Hep 3B2. The data set is described as follows: Induction of apoptosis in human Hep3B cells assessed as viable cells at 20 nM incubated for 48 hrs by Annexin V-FITC/PI staining based flow cytometry method (reference value: 93.3%). The format is functional. The following applies: read-out: Activity.
The subject of data set [28] is Hep 3B2. Nature of the data set: Induction of apoptosis in human Hep3B cells assessed as necrotic cells at 25 nM incubated for 48 hrs by Annexin V-FITC/PI staining based flow cytometry method (reference value: 1.2%). The data set is classed as functional.
Data set [29] relates to Huh-7. The data set is described as follows: Induction of morphological changes in human Huh-7 cells assessed as adherent cells at upto 25 nM incubated for 48 hrs by bright field imaging analysis. The format is functional, cell-based.
In data set [30] the test system is Hep 3B2. Nature of the data set: Induction of apoptosis in human Hep3B cells assessed as viable cells at 25 nM incubated for 48 hrs in presence of 4,6-dimorpholino-N-(4-nitrophenyl)-1,3,5-triazin-2-amine by Annexin V-FITC/PI staining based flow cytometry method (Rvb =95.7%). The format is functional. The following applies: read-out: Activity.
The test system of data set [31] is Hep 3B2. Nature of the data set: Induction of autophagic flux in human Hep3B cells harbouring mCherry-egfp-LC3 assessed as increase in yellow puncta at 25 nM incubated for 15 mins by laser scanning confocal microscopic analysis. The data set is classed as functional, cell-based.
Data set [32] deals with Hep 3B2. The data set is described as follows: Induction of morphological changes in human Hep3B cells assessed as adherent cells at upto 25 nM incubated for 48 hrs by bright field imaging analysis. The data set is classed as functional, cell-based.
Data set [33] relates to Huh-7. The data set is described as follows: Induction of apoptosis in human Huh-7 cells assessed as necrotic cells at 15 nM incubated for 48 hrs by Annexin V-FITC/PI staining based flow cytometry method (reference value: 0.7%). The format is functional.
In data set [34] the test system is Huh-7. The data set is described as follows: Induction of apoptosis in human Huh-7 cells assessed as upregulation of caspase-3 level […] incubated for 48 hrs in presence of 4,6-dimorpholino-N-(4-nitrophenyl)-1,3,5-triazin-2-amine by immunoblot analysis. The format is functional, cell-based.
The test system of data set [35] is Huh-7. Nature of the data set: Induction of apoptosis in human Huh-7 cells assessed as increase in PARP expression at upto 25 nM incubated for 48 hrs by Western blot analysis. The format is functional, cell-based.

Take `CCN(CC)CCCC(C)Nc1ccnc2cc(Cl)ccc12` (stereo not given) [CHLOROQUINE]: the Activity with Huh-7 [1] was determined as 19.1%; with Huh-7 [3], 1.9%. Besides, the result with Hep 3B2 [2], with Huh-7 [4], in the data set with Hep 3B2 [5] and in the data set with Hep 3B2 [6] was Active.

In the case of `C[C@]12CC[C@H](O)C[C@H]1CC[C@@H]1[C@@H]2[C@H](O)C[C@]2(C)[C@@H](c3ccc(=O)oc3)CC[C@]12O` [GAMABUFOTALIN], the outcome in the data set on Hep 3B2 [7], in the data set on Huh-7 [8], in the data set with Huh-7 [9], in the data set with Huh-7 [13], in the data set on Huh-7 [15] and in the data set on Hep 3B2 [18] was Active. The result with Hep 3B2 [20], with Hep 3B2 [21], with Hep 3B2 [23], in the data set on Huh-7 [29], in the data set with Hep 3B2 [31] and in the data set on Hep 3B2 [32] was Active. The result in the data set with Huh-7 [34] and with Huh-7 [35] was Active. Besides, the Activity in the data set on Hep 3B2 [10] is on record as 14.3%; in the data set on Huh-7 [11], 28.8%; in the data set with Hep 3B2 [12], 5.2%; in the data set on Huh-7 [14], 57.1%; in the data set with Hep 3B2 [16], 0.5%; in data set [17], “Non-Toxic”. Besides, the Activity is 31.1% in the data set with Huh-7 [19]; 67.6% in the data set on Huh-7 [22]; 4.9% with Huh-7 [24]; 10.9% with Hep 3B2 [25]; 6.6% with Hep 3B2 [26]; 0.6% with Hep 3B2 [28]. Also, the Activity in the data set on Huh-7 [33] is given as 4%. Besides, in the data set with Hep 3B2 [27], the viability at 0.02 µM was found to be 88.7%. Also, in the data set on Hep 3B2 [30], the viability at 0.025 µM was found to be 67.2%.
